Laboratory results published in patent US20240247080A1, “GLP1/GIP/NPY2 RECEPTOR TRIPLE AGONISTS” (Boehringer Ingelheim International GmbH, priority 2022, published 2024).
Like-named read-outs stand apart in the source and are kept apart here. Starred links: 1 amine or outer side, 2 acyl side, 3 side chain; linkers in the order of their positions; H or OH if unused. Non-standard residues stand in square brackets, D forms with d. Groups on a side chain read outwards from the residue. No end group written: not given here. *: point of attachment. C20 diacid = O=C(O)CCCCCCCCCCCCCCCCCCC(=O)*; C18 diacid = O=C(O)CCCCCCCCCCCCCCCCC(=O)*; γGlu = O=C(O)[C@H](CCC(=O)[*:2])N[*:1]; εLys = N[C@@H](CCCCN[*:1])C(=O)[*:2]; AEEA = NCCOCCOCC(=O)O; Aib = CC(C)(N)C(=O)O

Key:
Assay type in all cases: cell-based
Conditions in all cases: CreLuc reporter gene assay
hGLP1R = biological target: T1, hGLP1R (Homo sapiens, UniProt P43220); assay: hGLP1R CreLuc reporter gene assay in 0.5% and 100% plasma
T1 construct: expressed in transfected cells; host or cells: HEK-293 cells carrying a CRE-luciferase reporter gene
Procedure, shortened: (§1)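 Agonist EC50s came from 8-concentration curves over four decades, fitted by non-linear variable-slope regression of CRE-driven luciferase luminescence. Cells were exposed 4 h at 37 °C, in buffer with 0.5% human plasma or in 100% plasma; GIPR was expressed in CHO cells, GLP-1R and NPY2R in HEK cells.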

hNPY2R = biological target: T2, hNPY2R (Homo sapiens, UniProt P49146); assay: hNPY2R CreLuc reporter gene assay in 0.5% and 100% plasma
T2 construct: expressed in transfected cells; host or cells: HEK-293 cells carrying a CRE-luciferase reporter gene
T2 sequence (P49146 1-381): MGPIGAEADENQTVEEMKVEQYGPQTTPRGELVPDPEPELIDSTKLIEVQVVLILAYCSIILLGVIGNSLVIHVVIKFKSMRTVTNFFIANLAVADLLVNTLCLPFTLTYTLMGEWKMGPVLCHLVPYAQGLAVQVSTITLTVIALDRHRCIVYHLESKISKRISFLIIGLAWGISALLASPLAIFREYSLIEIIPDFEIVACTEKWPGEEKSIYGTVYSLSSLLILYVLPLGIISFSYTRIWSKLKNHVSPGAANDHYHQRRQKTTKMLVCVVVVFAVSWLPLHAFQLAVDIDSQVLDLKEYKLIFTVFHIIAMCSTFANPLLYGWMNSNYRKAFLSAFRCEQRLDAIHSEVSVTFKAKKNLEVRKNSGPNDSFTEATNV
Procedure, shortened: as §1

hGIPR = biological target: T3, hGIPR (Homo sapiens, UniProt P48546); assay: hGIPR CreLuc reporter gene assay in 0.5% and 100% plasma
T3 construct: expressed in transfected cells; host or cells: CHO cells carrying a CRE-luciferase reporter gene
T3 sequence (P48546 22-466): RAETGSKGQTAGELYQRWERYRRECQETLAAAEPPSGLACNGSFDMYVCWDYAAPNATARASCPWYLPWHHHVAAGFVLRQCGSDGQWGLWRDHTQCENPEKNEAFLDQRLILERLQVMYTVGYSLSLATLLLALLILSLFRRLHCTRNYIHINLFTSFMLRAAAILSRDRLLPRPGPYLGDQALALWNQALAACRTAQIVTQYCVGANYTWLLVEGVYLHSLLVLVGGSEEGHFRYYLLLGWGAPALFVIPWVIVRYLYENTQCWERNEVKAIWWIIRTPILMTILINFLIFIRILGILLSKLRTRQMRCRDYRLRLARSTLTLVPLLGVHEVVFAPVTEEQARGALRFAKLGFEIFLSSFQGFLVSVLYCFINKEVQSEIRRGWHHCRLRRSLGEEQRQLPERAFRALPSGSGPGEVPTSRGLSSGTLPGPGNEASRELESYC
Procedure, shortened: as §1

[1] = 0.5% human plasma, read-out: hGLP1R 0.5% hP
[2] = 0.5% human plasma, read-out: hNPY2R 0.5% hP
[3] = 100% human plasma, read-out: hNPY2R 100% hP
[4] = 0.5% human plasma, read-out: hGIPR 0.5% hP
[5] = 100% human plasma, read-out: hGLP1R 100% hP
[6] = 100% human plasma, read-out: hGIPR 100% hP

T1 sequence (P43220 24-463): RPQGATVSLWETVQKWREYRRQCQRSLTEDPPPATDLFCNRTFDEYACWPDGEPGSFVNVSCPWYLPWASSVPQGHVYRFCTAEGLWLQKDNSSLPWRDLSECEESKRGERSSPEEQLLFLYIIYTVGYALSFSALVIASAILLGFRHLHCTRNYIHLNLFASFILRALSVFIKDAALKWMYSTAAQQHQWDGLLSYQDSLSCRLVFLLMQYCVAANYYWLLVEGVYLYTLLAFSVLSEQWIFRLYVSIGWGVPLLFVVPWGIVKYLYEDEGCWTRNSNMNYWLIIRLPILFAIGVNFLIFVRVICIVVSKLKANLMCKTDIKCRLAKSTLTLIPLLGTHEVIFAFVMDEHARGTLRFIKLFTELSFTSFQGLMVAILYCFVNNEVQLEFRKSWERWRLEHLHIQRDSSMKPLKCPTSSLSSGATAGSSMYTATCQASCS

Row | Substance | EC50 (hGLP1R; [1]) [nM] | EC50 (hNPY2R; [2]) [nM] | EC50 (hNPY2R; [3]) [nM] | EC50 (hGIPR; [4]) [nM] | EC50 (hGLP1R; [5]) [nM] | EC50 (hGIPR; [6]) [nM]
1 | Y[Aib]EGTFTSDYSI[Aib]LEKQAQ[Aib]AFVEWLIK([AEEA-AEEA-γGlu-γGlu-γGlu-γGlu-γGlu-C20 diacid])GGPSSPASLRHYYNWLTRQRY-NH2 [Compound 120, Y-Aib-E-G-T-F-T-S-D-Y-S-I-Aib-L-E-K-Q-A-Q-Aib-A-F-V-E-W-L-I-K(1,3)-GGPSSPASLRHYYNWLTRQRY-NH2.C20DA-gGlu-gGlu-gGlu-gGlu-gGlu-OEG-OEG(1,2)] | 0.11 | 10.7 | 39.2 | 0.34 |  | 1.44
2 | H-Y[Aib]EGTFTSDYSI[Aib]LEKQAE[Aib]AFVQWLIK([εLys-γGlu-γGlu-γGlu-γGlu-C18 diacid])GGPSEPASLRHYYNWLTRQRY-NH2 [Compound 54, Y-Aib-E-G-T-F-T-S-D-Y-S-I-Aib-L-E-K-Q-A-E-Aib-A-F-V-Q-W-L-I-K(1,3)-GGPSEPASLRHYYNWLTRQRY-NH2.C18DA-gGlu-gGlu-gGlu-gGlu-eLys(1,2)] | 0.22 | 14 |  | 0.24 | 7.71 | 
3 | H-Y[Aib]EGTFTSDYSI[Aib]LEKQAQ[Aib]EFVEWLIK([AEEA-AEEA-γGlu-γGlu-γGlu-γGlu-C18 diacid])GGPSSPASLRHYYNWLTRQRY-NH2 [Compound 56, Y-Aib-E-G-T-F-T-S-D-Y-S-I-Aib-L-E-K-Q-A-Q-Aib-E-F-V-E-W-L-I-K(1,3)-GGPSSPASLRHYYNWLTRQRY-NH2.C18DA-gGlu-gGlu-gGlu-gGlu-OEG-OEG(1,2)] | 0.25 | 27.3 | 48.8 | 0.27 | 8.97 | 
4 | H-Y[Aib]EGTFTSDYSI[Aib]LEKQAQ[Aib]AFVEWLIK([AEEA-AEEA-γGlu-γGlu-γGlu-γGlu-C18 diacid])GGPSSPASLRHYYNWLTRQRY-NH2 [Compound 158, Y-Aib-E-G-T-F-T-S-D-Y-S-I-Aib-L-E-K-Q-A-Q-Aib-A-F-V-E-W-L-I-K(1,3)-GGPSSPASLRHYYNWLTRQRY-NH2.C18DA-gGlu-gGlu-gGlu-gGlu-OEG-OEG(1,2)] | 0.09 | 15.8 | 39.9 | 0.11 |  | 0.84
5 | H-Y[Aib]EGTFTSDYSI[Aib]LEGQAQ[Aib]AFVEWLIK([εLys-γGlu-γGlu-γGlu-γGlu-γGlu-γGlu-C20 diacid])GGPSSGASLRHYYNWLTRQRY-NH2 [Compound 99, Y-Aib-E-G-T-F-T-S-D-Y-S-I-Aib-L-E-G-Q-A-Q-Aib-A-F-V-E-W-L-I-K(1,3)-GGPSSGASLRHYYNWLTRQRY-NH2.C20DA-gGlu-gGlu-gGlu-gGlu-gGlu-gGlu-eLys(1,2)] | 0.41 | 16.8 |  | 0.91 |  | 
6 | H-Y[Aib]EGTFTSDYSI[Aib]LEKQAQ[Aib]AFVEWLIK([AEEA-AEEA-γGlu-γGlu-γGlu-γGlu-C18 diacid])GGPSEPASLRHYYNWLTRQRY-NH2 [Compound 256, Y-Aib-E-G-T-F-T-S-D-Y-S-I-Aib-L-E-K-Q-A-Q-Aib-A-F-V-E-W-L-I-K(1,3)-GGPSEPASLRHYYNWLTRQRY-NH2.C18DA-gGlu-gGlu-gGlu-gGlu-OEG-OEG(1,2)] | 0.18 | 10.9 |  | 0.23 |  | 1.56
7 | H-Y[Aib]EGTFTSDYSI[Aib]LEKQAQ[Aib]EFVEWLIK([εLys-γGlu-γGlu-γGlu-γGlu-γGlu-C18 diacid])GGPSSGASLRHYYNWLTRQRY-NH2 [Compound 159, Y-Aib-E-G-T-F-T-S-D-Y-S-I-Aib-L-E-K-Q-A-Q-Aib-E-F-V-E-W-L-I-K(1,3)-GGPSSGASLRHYYNWLTRQRY-NH2.C18DA-gGlu-gGlu-gGlu-gGlu-gGlu-eLys(1,2)] | 0.19 | 13.8 | 34.6 | 0.35 |  | 0.91

More lines, now with the values ahead:

Row | EC50 (hGLP1R; [1]) [nM] | EC50 (hNPY2R; [2]) [nM] | EC50 (hNPY2R; [3]) [nM] | EC50 (hGIPR; [4]) [nM] | EC50 (hGLP1R; [5]) [nM] | EC50 (hGIPR; [6]) [nM] | Substance
8 | 0.27 | 13.3 | 45.9 | 0.34 |  |  | H-Y[Aib]EGTFTSDYSI[Aib]LEKQAQ[Aib]AFVEWLIK([AEEA-AEEA-γGlu-γGlu-γGlu-γGlu-C20 diacid])GGPSEGASLRHYYNWLTRQRY-NH2 [Compound 287, Y-Aib-E-G-T-F-T-S-D-Y-S-I-Aib-L-E-K-Q-A-Q-Aib-A-F-V-E-W-L-I-K(1,3)-GGPSEGASLRHYYNWLTRQRY-NH2.C20DA-gGlu-gGlu-gGlu-gGlu-OEG-OEG(1,2)]
9 | 0.13 | 13.1 | 42.2 | 0.22 | 4.24 |  | H-Y[Aib]EGTFTSDYSI[Aib]LEKQAQ[Aib]AFVQWLIK([εLys-γGlu-γGlu-γGlu-γGlu-γGlu-C18 diacid])GGPEEGASLRHYYNWLTRQRY-NH2 [Compound 143, Y-Aib-E-G-T-F-T-S-D-Y-S-I-Aib-L-E-K-Q-A-Q-Aib-A-F-V-Q-W-L-I-K(1,3)-GGPEEGASLRHYYNWLTRQRY-NH2.C18DA-gGlu-gGlu-gGlu-gGlu-gGlu-eLys(1,2)]
10 | 0.36 | 13.6 |  | 0.5 |  |  | H-Y[Aib]EGTFTSDYSI[Aib]LEKQAQ[Aib]AFVQWLIK([AEEA-AEEA-γGlu-γGlu-γGlu-γGlu-C20 diacid])GGPEEGASLRHYYNWLTRQRY-NH2 [Compound 193, Y-Aib-E-G-T-F-T-S-D-Y-S-I-Aib-L-E-K-Q-A-Q-Aib-A-F-V-Q-W-L-I-K(1,3)-GGPEEGASLRHYYNWLTRQRY-NH2.C20DA-gGlu-gGlu-gGlu-gGlu-OEG-OEG(1,2)]
11 | 0.22 | 11.5 | 39.2 | 0.17 | 7.71 | 1.26 | H-Y[Aib]EGTFTSDYSI[Aib]LEKQAE[Aib]AFVQWLIK([εLys-γGlu-γGlu-γGlu-γGlu-C18 diacid])GGPSEGASLRHYYNWLTRQRY-NH2 [Compound 174, Y-Aib-E-G-T-F-T-S-D-Y-S-I-Aib-L-E-K-Q-A-E-Aib-A-F-V-Q-W-L-I-K(1,3)-GGPSEGASLRHYYNWLTRQRY-NH2.C18DA-gGlu-gGlu-gGlu-gGlu-eLys(1,2)]
12 | 0.17 | 12.6 |  | 0.08 | 1.7 | 0.75 | H-Y[Aib]EGTFTSDYSI[Aib]LEKQAQ[Aib]AFVEWLIK([εLys-γGlu-γGlu-γGlu-γGlu-γGlu-γGlu-C20 diacid])GGPSEPASLRHYYNWLTRQRY-NH2 [Compound 233, Y-Aib-E-G-T-F-T-S-D-Y-S-I-Aib-L-E-K-Q-A-Q-Aib-A-F-V-E-W-L-I-K(1,3)-GGPSEPASLRHYYNWLTRQRY-NH2.C20DA-gGlu-gGlu-gGlu-gGlu-gGlu-gGlu-eLys(1,2)]
13 | 0.15 | 18.6 |  | 0.58 | 4.76 | 0.79 | H-Y[Aib]EGTFTSDYSI[Aib]LEKQAQ[Aib]AFVQWLIK([εLys-γGlu-γGlu-γGlu-γGlu-γGlu-γGlu-C18 diacid])GGPEEGASLRHYYNWLTRQRY-NH2 [Compound 149, Y-Aib-E-G-T-F-T-S-D-Y-S-I-Aib-L-E-K-Q-A-Q-Aib-A-F-V-Q-W-L-I-K(1,3)-GGPEEGASLRHYYNWLTRQRY-NH2.C18DA-gGlu-gGlu-gGlu-gGlu-gGlu-gGlu-eLys(1,2)]
14 | 0.15 |  | 44.8 | 0.27 |  |  | H-Y[Aib]EGTFTSDYSI[Aib]LEKQAQ[Aib]AFVQWLIK([εLys-γGlu-γGlu-γGlu-γGlu-γGlu-γGlu-C20 diacid])GGPSEGVSLRHYYNWLTRQRY-NH2 [Compound 114, Y-Aib-E-G-T-F-T-S-D-Y-S-I-Aib-L-E-K-Q-A-Q-Aib-A-F-V-Q-W-L-I-K(1,3)-GGPSEGVSLRHYYNWLTRQRY-NH2.C20DA-gGlu-gGlu-gGlu-gGlu-gGlu-gGlu-eLys(1,2)]
15 | 0.16 | > 100 | > 1000 | 0.34 |  | 1.53 | H-Y[Aib]EGTFTSDYSI[Aib]LEKQAQ[Aib]AFVEWLIK([εLys-γGlu-γGlu-γGlu-γGlu-γGlu-γGlu-C20 diacid])GGPSSGASLRHYY[Aib]WLTRQRY-NH2 [Compound 213, Y-Aib-E-G-T-F-T-S-D-Y-S-I-Aib-L-E-K-Q-A-Q-Aib-A-F-V-E-W-L-I-K(1,3)-G-G-P-S-S-G-A-S-L-R-H-Y-Y-Aib-W-L-T-R-Q-R-Y-NH2.C20DA-gGlu-gGlu-gGlu-gGlu-gGlu-gGlu-eLys(1,2)]
